Assay results reported in ChEMBL document CHEMBL1145372, “(Phenylpiperidinyl)cyclohexylsulfonamides: development of alpha1a/1d-selective adrenergic receptor antagonists for the treatment of benign prostatic hyperplasia/lower urinary tract symptoms (BPH/LUTS)” (Bioorg Med Chem Lett, 2007).

Experiments:
D(2) dopamine receptor = D(2) dopamine receptor (Homo sapiens, UniProt P14416); test: Binding affinity for dopamine D2 receptor
[1] = molecular target: T1, Alpha-1B adrenergic receptor (Homo sapiens, UniProt P35368); test: Binding affinity to human cloned adrenergic alpha-1b receptor
T1 sequence (P35368 whole entry): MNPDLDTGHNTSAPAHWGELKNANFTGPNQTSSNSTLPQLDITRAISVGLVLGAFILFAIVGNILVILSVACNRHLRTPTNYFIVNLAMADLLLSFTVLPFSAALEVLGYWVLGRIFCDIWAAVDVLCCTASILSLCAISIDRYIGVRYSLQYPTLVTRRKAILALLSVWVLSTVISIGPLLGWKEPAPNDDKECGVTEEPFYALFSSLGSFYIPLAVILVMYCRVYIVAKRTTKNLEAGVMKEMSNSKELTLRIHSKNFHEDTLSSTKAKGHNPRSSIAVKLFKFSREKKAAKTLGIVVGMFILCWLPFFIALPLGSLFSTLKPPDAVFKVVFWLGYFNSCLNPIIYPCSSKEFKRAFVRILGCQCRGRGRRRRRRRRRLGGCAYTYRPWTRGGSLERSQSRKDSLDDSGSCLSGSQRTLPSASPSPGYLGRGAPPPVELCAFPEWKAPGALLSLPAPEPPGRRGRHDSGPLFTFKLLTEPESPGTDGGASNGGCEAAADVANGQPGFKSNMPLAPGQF

[2] = molecular target: T2, Alpha-1D adrenergic receptor (Homo sapiens, UniProt P25100); test: Binding affinity to human cloned adrenergic alpha-1d receptor
T2 sequence (P25100 whole entry): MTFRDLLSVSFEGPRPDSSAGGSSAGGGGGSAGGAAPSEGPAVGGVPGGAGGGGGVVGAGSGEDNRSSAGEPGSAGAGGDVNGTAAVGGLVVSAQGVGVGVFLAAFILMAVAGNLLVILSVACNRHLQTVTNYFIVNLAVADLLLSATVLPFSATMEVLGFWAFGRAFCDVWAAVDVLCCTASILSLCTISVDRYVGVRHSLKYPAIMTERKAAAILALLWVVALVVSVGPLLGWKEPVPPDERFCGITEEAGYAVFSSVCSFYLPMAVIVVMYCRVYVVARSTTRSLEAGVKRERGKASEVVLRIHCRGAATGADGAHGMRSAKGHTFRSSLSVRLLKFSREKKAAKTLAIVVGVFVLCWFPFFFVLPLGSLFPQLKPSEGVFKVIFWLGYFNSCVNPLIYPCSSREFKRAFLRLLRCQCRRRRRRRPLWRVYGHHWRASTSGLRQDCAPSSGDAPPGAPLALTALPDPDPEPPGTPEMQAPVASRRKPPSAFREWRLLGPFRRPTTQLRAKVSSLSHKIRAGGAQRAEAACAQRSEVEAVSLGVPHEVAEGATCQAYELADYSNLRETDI

[3] = molecular target: T3, Alpha-1A adrenergic receptor (Homo sapiens, UniProt P35348); test: Binding affinity to human cloned adrenergic alpha-1a receptor
T3 sequence (P35348 whole entry): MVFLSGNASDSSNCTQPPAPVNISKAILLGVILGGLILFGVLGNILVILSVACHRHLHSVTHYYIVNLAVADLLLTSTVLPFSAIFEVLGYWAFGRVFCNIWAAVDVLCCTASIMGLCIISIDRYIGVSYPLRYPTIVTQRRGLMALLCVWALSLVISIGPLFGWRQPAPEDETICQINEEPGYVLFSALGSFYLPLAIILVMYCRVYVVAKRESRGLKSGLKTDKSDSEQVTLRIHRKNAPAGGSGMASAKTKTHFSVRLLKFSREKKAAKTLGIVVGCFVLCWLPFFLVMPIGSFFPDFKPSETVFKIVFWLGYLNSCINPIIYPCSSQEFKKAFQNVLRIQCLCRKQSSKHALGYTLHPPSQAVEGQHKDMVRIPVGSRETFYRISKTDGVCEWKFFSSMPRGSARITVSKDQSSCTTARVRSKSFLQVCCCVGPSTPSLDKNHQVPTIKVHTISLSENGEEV

Sequence of D(2) dopamine receptor (P14416 whole entry): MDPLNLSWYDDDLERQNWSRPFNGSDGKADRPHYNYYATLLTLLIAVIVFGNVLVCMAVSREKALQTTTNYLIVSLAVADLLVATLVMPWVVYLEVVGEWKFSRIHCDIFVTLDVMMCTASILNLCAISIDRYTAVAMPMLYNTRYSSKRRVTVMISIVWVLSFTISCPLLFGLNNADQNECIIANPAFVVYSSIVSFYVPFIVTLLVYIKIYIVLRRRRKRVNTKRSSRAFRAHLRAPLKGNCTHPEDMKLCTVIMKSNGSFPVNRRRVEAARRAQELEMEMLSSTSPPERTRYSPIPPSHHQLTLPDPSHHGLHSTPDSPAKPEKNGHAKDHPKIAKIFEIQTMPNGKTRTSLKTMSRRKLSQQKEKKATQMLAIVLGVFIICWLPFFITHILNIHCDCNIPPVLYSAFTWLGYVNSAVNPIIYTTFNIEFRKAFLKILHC

Q: `O=S(=O)(N[C@H]1CC[C@H](N2CCC(c3ccccc3OCC(F)(F)F)CC2)CC1)c1cccc(OC(F)F)c1` was tested. Which Ki (D(2) dopamine receptor) did it give?
A: 129 nM

Q: What does the source list for `COc1ccc(S(=O)(=O)N[C@H]2CC[C@@H](N3CCC(c4ccccc4OCC(F)(F)F)CC3)CC2)cc1OC`?
A: Ki [1]: 123 nM; Ki [2]: 2.2 nM; Ki (D(2) dopamine receptor): 111 nM; Ki [3]: 1.8 nM

Q: Which Ki (D(2) dopamine receptor) does the source give for `COc1ccc(S(=O)(=O)N[C@H]2CC[C@@H](N3CCC(c4cc(F)ccc4OC(C)C)CC3)CC2)cc1OC` here?
A: 178 nM

Q: For `O=S(=O)(N[C@H]1CC[C@H](N2CCC(c3ccccc3OC3CC3)CC2)CC1)c1cc(Cl)ccc1F`, which Ki (D(2) dopamine receptor) is on record?
A: 159 nM

Q: `COc1ccc(S(=O)(=O)N[C@H]2CC[C@@H](N3CCC(c4ccccc4OCC(F)F)CC3)CC2)cc1OC` was tested. Which Ki (D(2) dopamine receptor) did it give?
A: 276 nM

Q: Which results are given for `COc1ccc(S(=O)(=O)N[C@H]2CC[C@H](N3CCC(c4ccccc4OCC(F)F)CC3)CC2)cc1OC`?
A: Ki (D(2) dopamine receptor): 88 nM; Ki [3]: 31 nM

Q: With `O=S(=O)(N[C@H]1CC[C@@H](N2CCC(c3ccccc3OCC(F)(F)F)CC2)CC1)c1ccc2c(c1)OCCO2` as the molecule, how does the Ki (D(2) dopamine receptor) read?
A: 57 nM

Q: With `COc1ccc(S(=O)(=O)N[C@H]2CC[C@H](N3CCC(c4ccc(F)cc4OC(C)C)CC3)CC2)cc1OC` as the molecule, how does the Ki (D(2) dopamine receptor) read?
A: 104 nM

Q: Which Ki [1] does the source give for `O=S(=O)(N[C@H]1CC[C@H](N2CCC(c3ccccc3OCC(F)(F)F)CC2)CC1)c1ccc2c(c1)OCCO2` here?
A: 91 nM

Q: What about the Ki (D(2) dopamine receptor) of the same molecule?
A: 23 nM

Q: `COc1ccc(S(=O)(=O)N[C@H]2CC[C@@H](N3CCC(c4ccccc4OC(C)C)CC3)CC2)cc1OC` was tested. Which Ki [2] did it give?
A: 0.77 nM

Q: What about the Ki (D(2) dopamine receptor) of the same molecule?
A: 144 nM

Q: What about the Ki [3] of the same molecule?
A: 2.2 nM

Q: Which Ki [2] does the source give for `COc1ccc(Cl)cc1S(=O)(=O)N[C@H]1CC[C@@H](N2CCC(c3ccccc3OCC(F)(F)F)CC2)CC1` here?
A: 1.6 nM

Q: And the Ki (D(2) dopamine receptor)?
A: 69 nM

Q: For `O=S(=O)(N[C@H]1CC[C@@H](N2CCC(c3ccccc3OC3CC3)CC2)CC1)c1cc(Cl)ccc1F`, which Ki (D(2) dopamine receptor) is on record?
A: 187 nM

Q: How did the Ki (D(2) dopamine receptor) turn out when `O=S(=O)(N[C@H]1CC[C@@H](N2CCC(c3ccccc3OCC(F)(F)F)CC2)CC1)c1cccc(OC(F)F)c1` was run?
A: 85 nM

Q: What does the source list for `O=S(=O)(N[C@H]1CC[C@H](N2CCC(c3ccccc3OCC(F)(F)F)CC2)CC1)c1ccc(OC(F)F)cc1`?
A: Ki (D(2) dopamine receptor): 104 nM; Ki [3]: 38 nM

Q: Which Ki [1] does the source give for `COc1ccc(S(=O)(=O)N[C@H]2CC[C@@H](N3CCC(c4ccccc4OCCF)CC3)CC2)cc1OC` here?
A: 401 nM

Q: What about the Ki [2] of the same molecule?
A: 5.5 nM

Q: What about the Ki (D(2) dopamine receptor) of the same molecule?
A: 201 nM

Q: And the Ki [3]?
A: 8.5 nM

Q: How did the Ki (D(2) dopamine receptor) turn out when `COc1ccc(Cl)cc1S(=O)(=O)N[C@H]1CC[C@H](N2CCC(c3ccccc3OCC(F)(F)F)CC2)CC1` was run?
A: 82 nM

Q: And the Ki [3]?
A: 10 nM

Q: With `COc1ccc(S(=O)(=O)N[C@H]2CC[C@H](N3CCC(c4ccccc4OCCF)CC3)CC2)cc1OC` as the molecule, how does the Ki (D(2) dopamine receptor) read?
A: 284 nM

Q: How did the Ki (D(2) dopamine receptor) turn out when `COc1ccc(Cl)cc1S(=O)(=O)N[C@H]1CC[C@H](N2CCC(c3ccccc3OC3CC3)CC2)CC1` was run?
A: 154 nM

Q: `O=S(=O)(N[C@H]1CC[C@H](N2CCC(c3ccccc3OC3CC3)CC2)CC1)c1ccc2c(c1)OCO2` was tested. Which Ki (D(2) dopamine receptor) did it give?
A: 71 nM

Q: Which results are given for `COc1ccc(S(=O)(=O)N[C@H]2CC[C@H](N3CCC(c4ccccc4OCC(F)(F)F)CC3)CC2)cc1OC`?
A: Ki [1]: 368 nM; Ki [2]: 23 nM; Ki (D(2) dopamine receptor): 83 nM; Ki [3]: 21 nM

Q: Which results are given for `O=S(=O)(N[C@H]1CC[C@@H](N2CCC(c3ccccc3OCC(F)(F)F)CC2)CC1)c1cc(Cl)ccc1F`?
A: Ki (D(2) dopamine receptor): 78 nM; Ki [3]: 5.9 nM

Q: How did the Ki (D(2) dopamine receptor) turn out when `COc1ccc(S(=O)(=O)N[C@H]2CC[C@H](N3CCC(c4cc(F)ccc4OC(C)C)CC3)CC2)cc1OC` was run?
A: 94 nM

Q: For `COc1ccc(S(=O)(=O)N[C@H]2CC[C@H](N3CCC(c4ccccc4OC4CC4)CC3)CC2)cc1OC`, which Ki [2] is on record?
A: 34 nM

Q: What about the Ki (D(2) dopamine receptor) of the same molecule?
A: 133 nM

Q: What about the Ki [3] of the same molecule?
A: 11 nM

Q: Which Ki [2] does the source give for `COc1ccc(S(=O)(=O)N[C@H]2CC[C@@H](N3CCC(c4ccc(F)cc4OC(C)C)CC3)CC2)cc1OC` here?
A: 12 nM

Q: What about the Ki (D(2) dopamine receptor) of the same molecule?
A: 106 nM

Q: How did the Ki (D(2) dopamine receptor) turn out when `COc1ccc(S(=O)(=O)N[C@H]2CC[C@H](N3CCC(c4ccccc4OC(C)C)CC3)CC2)cc1OC` was run?
A: 55 nM

Q: Which Ki (D(2) dopamine receptor) does the source give for `O=S(=O)(N[C@H]1CC[C@@H](N2CCC(c3ccccc3OC3CC3)CC2)CC1)c1ccc2c(c1)OCO2` here?
A: 66 nM

Q: What about the Ki [3] of the same molecule?
A: 16 nM

Q: How did the Ki (D(2) dopamine receptor) turn out when `O=S(=O)(N[C@H]1CC[C@@H](N2CCC(c3ccccc3OCC(F)(F)F)CC2)CC1)c1ccc(OC(F)F)cc1` was run?
A: 154 nM

Q: What does the source list for `O=S(=O)(N[C@H]1CC[C@H](N2CCC(c3ccccc3OCC(F)(F)F)CC2)CC1)c1cc(Cl)ccc1F`?
A: Ki (D(2) dopamine receptor): 37 nM; Ki [3]: 4.8 nM

Q: With `CC(C)Oc1ccccc1C1CCN([C@H]2CC[C@@H](NS(=O)(=O)c3ccc(F)c(F)c3)CC2)CC1` as the molecule, how does the Ki (D(2) dopamine receptor) read?
A: 79 nM

Q: With `COc1ccc(S(=O)(=O)N[C@H]2CC[C@@H](N3CCC(c4ccccc4OC4CC4)CC3)CC2)cc1OC` as the molecule, how does the Ki (D(2) dopamine receptor) read?
A: 144 nM

Q: With `CC(C)Oc1ccccc1C1CCN([C@H]2CC[C@H](NS(=O)(=O)c3ccc(F)c(F)c3)CC2)CC1` as the molecule, how does the Ki [1] read?
A: 1380 nM

Q: And the Ki [2]?
A: 87 nM

Q: And the Ki (D(2) dopamine receptor)?
A: 79 nM

Q: What about the Ki [3] of the same molecule?
A: 1.4 nM

Q: With `COc1ccc(Cl)cc1S(=O)(=O)N[C@H]1CC[C@@H](N2CCC(c3ccccc3OC3CC3)CC2)CC1` as the molecule, how does the Ki (D(2) dopamine receptor) read?
A: 129 nM
